From paper PMC12337281, “mTORC1-selective inhibitors rescue cellular phenotypes in TSC iPSC-derived neurons” (Frontiers in Neuroscience, 2025)

Tested on: TSC2–/– iPSC-derived neurons
Assay: MEA weighted mean firing rate in TSC2–/– iPSC-derived neurons
Format: cell-based, human
From the text: TSC2^–/– iPSC-derived cortical neurons were differentiated in two to three replicate batches, defined as independent plating of starting material iPSCs and use of reagents to differentiate iPSCs into neurons. The NGN2-induced cortical neurons were differentiated following previously published methods ([Winden et al., 2019]; [Zhang et al., 2013]) that are also described here. To establish a line of iPSCs expressing the NGN2 vector, on differentiation day - 2, iPSCs were dissociated with Accutase (Innovative Cell Technologies #AT104) and plated as single cells at 90,000 cells/cm^2 in mTeSR-1 media supplemented with 10 μM ROCK inhibitor (Y-27631, Cayman Chemical #10005583), on Geltrex-coated 12-well plates. While iPSCs were routinely cultured with StemFlex (as noted above), the NGN2 differentiation was optimized with mTeSR-1 media, so the switch was made to this media prior to initiating differentiation. One day after re-plating as single cells, on differentiation day - 1, iPSCs were transduced with lentiviral vectors expressing NGN2 and rtTA and 8 μg/ml polybrene (Sigma-Aldrich #TR-1003-G). The lentiviral particles were produced and concentrated at the Viral Core at Boston Children’s Hospital and were added to the culture at an MOI of 5 for each vector. Both plasmids are available at Addgene with the following IDs: 52047 and 20342. […]

## CO[C@H]1C[C@@H]2CC[C@@H](C)[C@@](O)(O2)C(=O)C(=O)N2CCCC[C@H]2C(=O)O[C@H]([C@H](C)C[C@@H]2CC[C@@H](O)[C@H](OC)C2)CC(=O)[C@H](C)/C=C(\C)[C@@H](O)[C@@H](OC)C(=O)[C@H](C)C[C@H](C)/C=C/C=C/C=C/1C [Rapamycin, rapamycin]
Homo sapiens, Neuron, day 23, after 2 weeks treatment until day 21, replicate batch #1
  IC50: 0.015 nM
During the 2 weeks treatment window, vs DMSO
  Dose at which WMFR was lowered: > 0.1 nM
